The subject of data set [1] is Colletotrichum lindemuthianum. Put plainly: In vivo preventive test on Colletotrichum lindemuthianum (leaf spot on bean). Particulars: 168 h, 500 ppm of active ingredient, sprayed on young bean plants 24 h before inoculation, evaluated 7 days after inoculation, read-out: efficacy. An outline of the steps: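 Young bean plants sprayed preventively with compound in DMSO/acetone/Tween 80 diluted in water; controls got solvent mix only. After 24 hours, leaves sprayed with an aqueous spore suspension of C. lindemuthianum.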

For data set [2], the system named is Pyrenophora teres. Description: Pyrenophora teres in vitro cell test. Particulars: 144 h, liquid culture, 6 days incubation, read-out: efficacy (inhibition of fungal growth); for inhibition at 20 ppm: 20 ppm of active ingredient. It is filed as cell-based. In a few lines: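 Compounds in DMSO were added to P. teres spore suspensions in glucose/peptone/yeast-extract liquid medium, testing inhibition of spore germination and mycelium growth. After 6 days, mycelium growth was read by absorbance. Inhibition was calculated relative to fungicide-free control wells.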

The test system of data set [3] is Botrytis cinerea. Description: Botrytis cinerea in vitro cell test. Particulars: 144 h, liquid culture, 6 days incubation, read-out: efficacy (inhibition of fungal growth); for inhibition at 20 ppm: 20 ppm of active ingredient. It is filed as cell-based. In a few lines: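 Liquid-culture germination/growth test: spore suspension in synthetic medium (salts, urea, KNO3, saccharose, trace elements, thiamine, biotin) with compound dissolved in DMSO. Absorbance of mycelial growth measured at day 6, compared with untreated wells to give inhibition.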

Data set [4] concerns Fusarium culmorum. Description: Fusarium culmorum in vitro cell test. It is filed as cell-based. Particulars: 120 h, liquid culture, 5 days incubation, read-out: efficacy (inhibition of fungal growth); for inhibition at 20 ppm: 20 ppm of active ingredient. An outline of the steps: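 Spores in liquid mineral-salts/saccharose medium exposed to compounds (DMSO ≤1% final) for 5 days. Mycelium growth measured spectrometrically, with inhibition derived from absorbance relative to fungicide-free control wells.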

In data set [5] the test system is Septoria tritici. Put plainly: Septoria tritici in vitro cell test. It is filed as cell-based. Particulars: Zymoseptoria tritici, 168 h, liquid culture, 7 days incubation, read-out: efficacy (inhibition of fungal growth); for inhibition at 20 ppm: 20 ppm of active ingredient. On the procedure:
B-11. Septoria tritici In Vitro Cell Test • Solvent: DMSO • Culture medium: 1 g KH2PO4 (VWR), 1 g K2HPO4 (VWR), 0.5 g Urea (VWR), 3 g KNO3 (Prolabo), 10 g saccharose (VWR), 0.5 g MgSO4, 7H2O (Sigma), 0.07 g CaCl2, 2H2O (Prolabo), 0.2 mg MnSO4, H2O (Sigma), 0.6 mg CuSO4, 5H2O (Sigma), 7.9 mg ZnSO4, 7H2O (Sigma), 0.1 mg H3BO3 (Merck), 0.14 mg NaMoO4, 2H2O (Sigma), 2 mg thiamine (Sigma), 0.1 mg biotine (VWR), 4 mg FeSO4, 7H2O (Sigma), QSP 1 liter • Inoculum: spore suspension Fungicides were solubilized in DMSO and the solution used to prepare the required range of concentrations. […] A spore suspension of S. tritici was prepared and diluted to the desired spore density. Fungicides were evaluated for their ability to inhibit spore germination and mycelium growth in liquid culture assay. The compounds were added in the desired concentration to the culture medium with spores. […] Inhibition of fungal growth was determined by comparing the absorbance values in wells containing the fungicides with the absorbance in control wells without fungicides.

Data set [6] in a line: Measurement of Log P values by HPLC on reversed phase columns (EEC directive 79/831 Annex V.A8). It is filed as physicochemical. Particulars: Table 1, compounds of formula (I); method [a]: LC-UV, acidic range, 0.1% formic acid in water and acetonitrile.
For data set [7], the system named is Alternaria alternata. Put plainly: Alternaria alternata in vitro cell test. It is filed as cell-based. Particulars: 120 h, liquid culture, 5 days incubation, read-out: efficacy (inhibition of fungal growth); for inhibition at 20 ppm: 20 ppm of active ingredient. An outline of the steps:
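Spores in glucose/mycological peptone/yeast extract liquid medium were exposed to DMSO-dissolved fungicides for 5 days. Inhibition of germination and mycelial growth was read spectrophotometrically, comparing absorbance against fungicide-free control wells.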

The structures appear in SMILES notation.

The inhibition is the share of the control response that was lost under treatment. As a reminder, the chromatographic logP is lipophilicity estimated from chromatographic retention. High values mean a more lipophilic compound, low ones a more hydrophilic compound. For the compound `FC(F)(F)c1cccc(Sc2cnc(Cl)cc2C2=NOC[C@@H](Cc3ccc(Cl)cc3Cl)N2)c1` (racemic) [Compound I-022], the pest or weed control at 500 ppm in data set [1] lay in the range of 90 to 100%. Besides, the inhibition at 20 ppm in data set [2] is 90 to 100%; in data set [3] it was 90 to 100%; in data set [4] it was 90 to 100%; in data set [5], 80 to 89%. For the same compound, the chromatographic logP in data set [6] turned out to be 4.97.

On to `Cc1cccc(Sc2cnc3ccccc3c2C2=NOC[C@H](Cc3ccc(C)cc3C)N2)c1` (racemic) [Compound I-023], for which the pest or weed control at 500 ppm in data set [1] was 70 to 79%. The inhibition at 20 ppm in data set [2], in data set [3], in data set [4], in data set [5] and in data set [7] was 90 to 100% each time. The chromatographic logP in data set [6] is 4.37.

Take `Cc1ccc(C[C@@H]2CON=C(c3c(Sc4cccc(C(F)(F)F)c4)nnc4ccccc34)N2)c(C)c1` (racemic) [Compound I-029]: in data set [1], the pest or weed control at 500 ppm lay in the range of 70 to 79%. Also, the inhibition at 20 ppm lay in the range of 90 to 100% in data set [2]; 90 to 100% in data set [3]; 80 to 89% in data set [4]; 90 to 100% in data set [5]; 90 to 100% in data set [7]. In data set [6], this compound came in with a chromatographic logP of 4.66.

As to `Cc1ccc(C[C@H]2CON=C(c3c(Sc4cccc(C(F)(F)F)c4)cnc4ccccc34)N2)c(C)c1` (racemic) [Compound I-030], the pest or weed control at 500 ppm in data set [1] lay within 90 to 100%. The inhibition at 20 ppm was 90 to 100% in data set [2]; 90 to 100% in data set [3]; 90 to 100% in data set [4]; 70 to 79% in data set [5]; 90 to 100% in data set [7]. This compound also returned a chromatographic logP in data set [6] of 4.57.

`Cc1ccc(C[C@@H]2CON=C(c3nc(C)ncc3Sc3cccc(Cl)c3)N2)c(C)c1` (racemic) [Compound I-031]: in data set [1], the pest or weed control at 500 ppm lay within 90 to 100%. Moreover, the inhibition at 20 ppm in data set [2] lay within 90 to 100%; in data set [3], 90 to 100%; in data set [4], 90 to 100%; in data set [5], 80 to 89%; in data set [7] it was 70 to 79%. This compound yielded a chromatographic logP in data set [6] of 5.16.

With `Cc1cccc(Sc2cnc(C)nc2C2=NOC[C@@H](Cc3ccc(C)cc3C)N2)c1` (racemic) [Compound I-032], the pest or weed control at 500 ppm in data set [1] was 90 to 100%. The inhibition at 20 ppm lay in the range of 90 to 100% in data set [2]; 90 to 100% in data set [3]; 80 to 89% in data set [4]; 90 to 100% in data set [5]; 70 to 79% in data set [7]. Moreover, in data set [6], the chromatographic logP was determined as 5.09.

`Cc1ccc(C[C@@H]2CON=C(c3nc(C)ncc3Sc3cccc(Cl)c3)N2)c(Cl)c1` (racemic) [Compound I-033]: the pest or weed control at 500 ppm in data set [1] is 90 to 100%. Moreover, the inhibition at 20 ppm in data set [2], in data set [3], in data set [4] and in data set [5] was 90 to 100% throughout. This compound also came in with a chromatographic logP in data set [6] of 5.24.

Consider `Cc1cc([C@@H]2CON=C(c3c(Sc4cccc(Cl)c4)nnc(C)c3C)N2)c(C)s1` (racemic) [Compound I-100], for which, in data set [1], the pest or weed control at 500 ppm was in the range of 90 to 100%. For the same compound, the inhibition at 50 µM in data set [2] (50 μMol/l of active ingredient), in data set [3] (50 μMol/l of active ingredient), in data set [4] (50 μMol/l of active ingredient), in data set [5] (50 μMol/l of active ingredient) and in data set [7] (50 μMol/l of active ingredient) was 90 to 100% in each case. In data set [6], the chromatographic logP was determined as 3.49.

(Values after patent publication US20250042886A1, “BIS(HETERO)ARYL THIOETHER OXADIAZINES AS FUNGICIDAL COMPOUNDS” (Bayer Aktiengesellschaft, priority 2021, published 2025).)
